Read-outs that look alike come from different tables or passages of the source.
Assays:
[1] = tested on: gastric cancer cell line AGS; experiment: Cancer cell proliferation inhibitory activity evaluation 2 (CCK-8), AGS; format: cell-based; details: Homo sapiens, read-out: Cancer cell proliferation inhibitory activity AGS
MLK3 = MLK3 (Homo sapiens (Human), UniProt Q16584); experiment: Evaluation of inhibitory activity of enzyme units, MLK3 ([γ-33P]-ATP filter assay)
[2] = tested on: chronic myeloid leukemia cell line K562; experiment: Cancer cell proliferation inhibitory activity evaluation 1 (CCK-8), K562; format: cell-based; details: Homo sapiens, read-out: Cancer cell proliferation inhibitory activity K562
Method: (§1) In order to identify whether the compound has anticancer activity, the human breast cancer cell line MDA-MB-231, the colorectal cancer cell line HT-29, the acute myeloid leukemia cell line U937, and the chronic myeloid leukemia cell line K562 were used. The cell line was cultured using RPMI-1640 medium containing 10% fetal bovine serum. Welgene products were used as the medium, and hyclone products were used for fetal bovine serum, and 1% of antibiotics for cell culture from Gibco were used as the culture medium.

[3] = tested on: acute myeloid leukemia cell line U937; experiment: Cancer cell proliferation inhibitory activity evaluation 2 (CCK-8), U937; format: cell-based; details: Homo sapiens, read-out: Cancer cell proliferation inhibitory activity U937
[4] = tested on: colorectal cancer cell line HT-29; experiment: Cancer cell proliferation inhibitory activity evaluation 1 (CCK-8), HT-29; format: cell-based; details: Homo sapiens, read-out: Cancer cell proliferation inhibitory activity HT29
Method: as §1

[5] = tested on: acute lymphoblastic leukemia cell line Jurkat; experiment: Cancer cell proliferation inhibitory activity evaluation 2 (CCK-8), Jurkat; format: cell-based; details: Homo sapiens
[6] = tested on: human breast cancer cell line MDA-MB-231; experiment: Cancer cell proliferation inhibitory activity evaluation 1 (CCK-8), MDA-MB-231; format: cell-based
Method: as §1

[7] = tested on: acute myeloid leukemia cell line U937; experiment: Cancer cell proliferation inhibitory activity evaluation 1 (CCK-8), U937; format: cell-based; details: Homo sapiens, read-out: Cancer cell proliferation inhibitory activity U937
Method: as §1

LRRK2 wild-type = LRRK2 wild-type (Homo sapiens (Human), UniProt Q5S007); experiment: Evaluation of inhibitory activity against LRRK2 (affinity bead competition binding), wild-type; details: read-out: Residual active values (%) LRRK2; for remaining binding at 0.1 µM: 100 nM; for remaining binding at 0.5 µM: 500 nM
Method: (§2) In order to identify the activity inhibitory effect on the LRRK2 wild-type and LRRK2 mutant (G2019S) kinase of the example compound according to the present disclosure, BL21-derived E. coli bacteria (E. coli) were cultured in a 24-well plate until the growth phase (log phase). After culturing, T7 phage tagged with LRRK2 wild-type or LRRK2 mutant (G2019S) was used to infect the multiplicity of infection (MOI) at 0.4. Thereafter, the E. coli bacteria were stirred at 32° C. for 90 to 150 minutes to allow dissolution. The lysate of E. coli bacteria was centrifuged (6,000×g) and filtered (0.2 μm), and the obtained tagged T7 phage […] a DNA-tagged kinase protein (LRRK2 or LRRK2 G2019S) was obtained.
(§3) After blocking the biotinylated ligand with extra biotin, it is washed with Pierce's buffer, SeaBlock (1% BSA, 0.05% Tween 20, 1 mM DTT) to remove unbound ligand and reduce non-specific binding.
(§4) The compound was prepared at a concentration of 40× in 100% DMSO and used after dilution, and all binding reactions were performed in a final volume of 0.02 ml in a 384-well plate.
(§5) The activity inhibitory effect on the LRRK2 wild-type and LRRK2 mutant (G2019S) kinases of the example compounds according to the present disclosure was measured and shown in Table 10 below.

LRRK2 mutant (G2019S) = LRRK2 mutant (G2019S) (Homo sapiens (Human), UniProt Q5S007, G2019S); experiment: Evaluation of inhibitory activity against LRRK2 (affinity bead competition binding), G2019S mutant; details: read-out: Residual active values (%) LRRK2(G2019S); for remaining binding at 0.1 µM: 100 nM; for remaining binding at 0.5 µM: 500 nM
Method: as §2, §3, §4, §5

MLK1 = MLK1 (Homo sapiens (Human), UniProt P80192); experiment: Evaluation of inhibitory activity of enzyme units, MLK1 ([γ-33P]-ATP filter assay); format: biochemical
[8] = tested on: human lung cancer cell line A549; experiment: Cancer cell proliferation inhibitory activity evaluation 2 (CCK-8), A549; format: cell-based
Method: (§6) In order to identify whether the compounds have anticancer activity, the acute myeloid leukemia cell line U937, the acute lymphoblastic leukemia cell line Jurkat, the gastric cancer cell lines AGS, […], and the human lung cancer cell line A549 were used. The cell line was cultured using RPMI-1640 medium (U937, Jurkat, AGS, A549) or DMEM (Hs746T) medium containing 10% fetal bovine serum. Welgene products were used as the medium, and hyclone products were used for fetal bovine serum, and 1% of antibiotics for cell culture from Gibco were used as the culture medium.

[9] = tested on: gastric cancer cell line Hs746T; experiment: Cancer cell proliferation inhibitory activity evaluation 2 (CCK-8), Hs746T; format: cell-based; details: Homo sapiens
Method: as §6

[10] = U-937, 10 μM, 72 hours, CCK-8 (Table 3)
[11] = 10 μM, 72 hours, CCK-8, read-out: Cancer cell proliferation inhibitory activity Jurkat
[12] = MDA-MB-231, 10 μM, 72 hours, CCK-8, read-out: Cancer cell proliferation inhibitory activity MDAMB231
[13] = U-937, 10 μM, 72 hours, CCK-8 (Table 2)
[14] = 72 h, read-out: Cancer cell proliferation inhibitory activity Jurkat
[15] = MDA-MB-231, 72 h, read-out: Cancer cell proliferation inhibitory activity MDAMB231
[16] = A549, 10 μM, 72 hours, CCK-8, read-out: Cancer cell proliferation inhibitory activity A549
[17] = 10 μM, 72 hours, CCK-8, read-out: Cancer cell proliferation inhibitory activity Hs746T

LRRK2 wild-type, sequence (Q5S007 whole entry, looked up): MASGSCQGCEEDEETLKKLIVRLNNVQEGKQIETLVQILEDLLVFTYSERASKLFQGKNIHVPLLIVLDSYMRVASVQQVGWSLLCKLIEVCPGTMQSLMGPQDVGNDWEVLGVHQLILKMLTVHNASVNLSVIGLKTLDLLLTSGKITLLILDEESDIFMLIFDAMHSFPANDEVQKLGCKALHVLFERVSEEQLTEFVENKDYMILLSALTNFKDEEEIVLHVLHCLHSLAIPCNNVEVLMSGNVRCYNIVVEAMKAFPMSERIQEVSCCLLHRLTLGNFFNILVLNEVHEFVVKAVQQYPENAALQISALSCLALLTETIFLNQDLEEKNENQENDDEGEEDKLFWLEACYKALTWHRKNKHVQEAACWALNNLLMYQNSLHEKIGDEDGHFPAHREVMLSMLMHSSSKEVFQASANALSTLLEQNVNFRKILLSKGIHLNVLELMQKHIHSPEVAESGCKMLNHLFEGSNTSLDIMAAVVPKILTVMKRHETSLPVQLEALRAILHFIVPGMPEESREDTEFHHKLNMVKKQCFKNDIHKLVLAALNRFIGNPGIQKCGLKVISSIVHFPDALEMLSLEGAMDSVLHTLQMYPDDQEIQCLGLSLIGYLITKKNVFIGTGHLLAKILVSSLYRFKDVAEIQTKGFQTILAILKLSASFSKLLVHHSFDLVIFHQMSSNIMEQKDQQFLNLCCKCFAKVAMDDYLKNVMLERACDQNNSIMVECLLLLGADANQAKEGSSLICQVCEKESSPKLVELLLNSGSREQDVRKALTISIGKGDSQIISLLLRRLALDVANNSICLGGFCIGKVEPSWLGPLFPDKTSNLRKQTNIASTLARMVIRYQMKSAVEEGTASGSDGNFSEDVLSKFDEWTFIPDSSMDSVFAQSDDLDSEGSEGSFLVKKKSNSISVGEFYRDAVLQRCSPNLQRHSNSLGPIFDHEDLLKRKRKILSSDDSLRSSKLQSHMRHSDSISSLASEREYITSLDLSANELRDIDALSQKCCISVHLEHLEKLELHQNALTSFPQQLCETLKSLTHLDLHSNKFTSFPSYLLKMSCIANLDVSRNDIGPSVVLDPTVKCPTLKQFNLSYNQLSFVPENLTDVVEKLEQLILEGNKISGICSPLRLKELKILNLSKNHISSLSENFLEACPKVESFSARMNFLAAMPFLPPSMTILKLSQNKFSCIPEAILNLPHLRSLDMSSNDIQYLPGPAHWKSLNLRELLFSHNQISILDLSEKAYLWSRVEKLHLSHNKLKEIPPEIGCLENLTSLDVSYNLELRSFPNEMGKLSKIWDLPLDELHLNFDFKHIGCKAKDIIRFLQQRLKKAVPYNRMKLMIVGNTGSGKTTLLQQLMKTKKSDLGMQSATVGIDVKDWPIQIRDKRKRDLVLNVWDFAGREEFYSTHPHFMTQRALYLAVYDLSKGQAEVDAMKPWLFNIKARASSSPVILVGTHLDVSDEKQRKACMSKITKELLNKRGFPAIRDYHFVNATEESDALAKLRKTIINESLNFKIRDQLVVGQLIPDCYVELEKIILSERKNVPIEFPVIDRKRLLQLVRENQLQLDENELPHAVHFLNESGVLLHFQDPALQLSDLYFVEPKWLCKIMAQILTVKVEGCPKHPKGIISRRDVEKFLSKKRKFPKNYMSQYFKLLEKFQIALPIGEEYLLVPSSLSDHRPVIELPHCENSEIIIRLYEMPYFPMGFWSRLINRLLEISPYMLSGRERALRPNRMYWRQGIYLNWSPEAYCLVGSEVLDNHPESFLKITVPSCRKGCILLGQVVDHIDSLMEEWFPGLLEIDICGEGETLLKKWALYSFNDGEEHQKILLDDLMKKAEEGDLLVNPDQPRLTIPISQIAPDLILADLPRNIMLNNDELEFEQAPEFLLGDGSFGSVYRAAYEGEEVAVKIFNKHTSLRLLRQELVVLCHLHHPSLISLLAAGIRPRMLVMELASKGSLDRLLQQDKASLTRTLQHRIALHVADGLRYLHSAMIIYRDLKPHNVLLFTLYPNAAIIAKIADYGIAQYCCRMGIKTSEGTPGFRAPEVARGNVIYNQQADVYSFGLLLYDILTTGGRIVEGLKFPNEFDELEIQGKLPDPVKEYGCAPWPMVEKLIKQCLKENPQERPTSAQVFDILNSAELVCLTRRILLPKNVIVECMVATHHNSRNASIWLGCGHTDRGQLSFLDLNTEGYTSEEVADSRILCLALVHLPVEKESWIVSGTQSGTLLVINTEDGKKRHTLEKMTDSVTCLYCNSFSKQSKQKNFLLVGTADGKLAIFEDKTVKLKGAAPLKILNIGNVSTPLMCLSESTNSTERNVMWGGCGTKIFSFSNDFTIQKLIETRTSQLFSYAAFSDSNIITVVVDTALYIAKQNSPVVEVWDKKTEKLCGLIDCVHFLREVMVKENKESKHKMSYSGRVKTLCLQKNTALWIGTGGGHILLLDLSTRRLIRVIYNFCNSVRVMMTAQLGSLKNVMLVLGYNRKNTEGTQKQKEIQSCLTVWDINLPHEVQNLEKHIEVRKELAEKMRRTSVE
LRRK2 mutant (G2019S), sequence (Q5S007 whole entry G2019S, looked up): as the sequence (Q5S007 whole entry, looked up) above, with G2019S counted along it
MLK3, sequence (Q16584 whole entry, looked up): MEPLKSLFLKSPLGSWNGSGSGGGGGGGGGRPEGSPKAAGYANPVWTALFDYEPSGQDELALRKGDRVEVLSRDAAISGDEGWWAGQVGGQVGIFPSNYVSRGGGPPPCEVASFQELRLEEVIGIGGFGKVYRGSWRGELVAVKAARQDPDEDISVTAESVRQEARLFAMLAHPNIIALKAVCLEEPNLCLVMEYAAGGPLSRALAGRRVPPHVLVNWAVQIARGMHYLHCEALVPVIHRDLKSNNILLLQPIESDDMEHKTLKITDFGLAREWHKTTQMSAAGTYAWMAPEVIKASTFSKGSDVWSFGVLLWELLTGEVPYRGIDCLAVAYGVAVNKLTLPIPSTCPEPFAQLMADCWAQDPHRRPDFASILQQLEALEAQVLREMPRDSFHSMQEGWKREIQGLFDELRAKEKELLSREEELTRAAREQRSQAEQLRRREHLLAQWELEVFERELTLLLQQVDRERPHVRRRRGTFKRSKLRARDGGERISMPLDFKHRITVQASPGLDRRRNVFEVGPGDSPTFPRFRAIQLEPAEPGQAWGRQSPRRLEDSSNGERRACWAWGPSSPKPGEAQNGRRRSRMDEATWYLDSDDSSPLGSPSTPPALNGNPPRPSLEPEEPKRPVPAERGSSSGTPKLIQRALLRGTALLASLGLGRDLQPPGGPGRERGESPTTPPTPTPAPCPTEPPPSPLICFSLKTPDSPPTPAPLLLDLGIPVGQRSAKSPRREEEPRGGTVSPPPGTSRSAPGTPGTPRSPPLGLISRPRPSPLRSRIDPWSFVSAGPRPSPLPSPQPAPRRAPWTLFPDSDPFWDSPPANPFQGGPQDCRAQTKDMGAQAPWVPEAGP
MLK1, sequence (P80192 whole entry, looked up): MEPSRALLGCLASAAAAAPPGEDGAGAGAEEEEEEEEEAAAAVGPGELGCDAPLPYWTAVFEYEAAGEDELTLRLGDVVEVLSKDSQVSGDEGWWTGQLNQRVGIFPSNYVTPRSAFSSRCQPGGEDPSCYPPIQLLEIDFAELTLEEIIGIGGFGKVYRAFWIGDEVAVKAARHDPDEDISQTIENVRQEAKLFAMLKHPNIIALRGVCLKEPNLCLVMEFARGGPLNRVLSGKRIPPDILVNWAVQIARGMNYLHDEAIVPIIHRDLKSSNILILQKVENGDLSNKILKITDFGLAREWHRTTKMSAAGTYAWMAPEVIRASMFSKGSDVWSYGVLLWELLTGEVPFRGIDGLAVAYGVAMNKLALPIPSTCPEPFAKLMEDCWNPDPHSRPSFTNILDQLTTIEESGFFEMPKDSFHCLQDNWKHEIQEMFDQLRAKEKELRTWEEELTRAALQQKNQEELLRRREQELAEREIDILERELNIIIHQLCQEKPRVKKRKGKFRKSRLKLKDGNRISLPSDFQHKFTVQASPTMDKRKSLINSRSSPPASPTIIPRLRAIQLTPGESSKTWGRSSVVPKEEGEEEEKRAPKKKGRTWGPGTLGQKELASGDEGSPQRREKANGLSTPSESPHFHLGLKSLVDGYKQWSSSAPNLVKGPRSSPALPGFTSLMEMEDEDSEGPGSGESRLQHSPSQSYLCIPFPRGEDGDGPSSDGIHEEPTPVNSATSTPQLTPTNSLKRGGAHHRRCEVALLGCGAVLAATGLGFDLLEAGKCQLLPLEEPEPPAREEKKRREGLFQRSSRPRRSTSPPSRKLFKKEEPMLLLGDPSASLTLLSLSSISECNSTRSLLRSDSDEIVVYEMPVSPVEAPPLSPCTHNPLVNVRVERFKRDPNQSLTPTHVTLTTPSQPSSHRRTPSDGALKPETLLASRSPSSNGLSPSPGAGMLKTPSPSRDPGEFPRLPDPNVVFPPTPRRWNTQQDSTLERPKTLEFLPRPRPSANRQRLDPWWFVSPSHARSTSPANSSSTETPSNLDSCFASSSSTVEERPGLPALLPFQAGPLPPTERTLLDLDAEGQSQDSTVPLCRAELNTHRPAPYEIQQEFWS

| IC50 (MLK3) [nM] | SMILES | inhibition at 10 µM ([1]; 10 μM, 72 hours, CCK-8) [%] | inhibition at 10 µM ([2]; K562, 10 μM, 72 hours, CCK-8) [%] | inhibition at 10 µM [3, 10] [%] | inhibition at 10 µM ([4]; HT-29, 10 μM, 72 hours, CCK-8) [%] | inhibition at 10 µM [5, 11] [%] | inhibition at 10 µM [6, 12] [%] | inhibition at 10 µM [7, 13] [%] | inhibition at 10 µM ([1]; 72 h) [%] | IC50 (MLK3; read-out: IC50(nM) MLK3) [nM] | inhibition at 10 µM ([3]; U-937, 72 h) [%] | inhibition at 10 µM [5, 14] [%] | remaining binding at 0.1 µM (LRRK2 wild-type) [%] | remaining binding at 0.5 µM (LRRK2 wild-type) [%] | remaining binding at 0.1 µM (LRRK2 mutant (G2019S)) [%] | remaining binding at 0.5 µM (LRRK2 mutant (G2019S)) [%] | further results |
| --- | --- | --- | --- | --- | --- | --- | --- | --- | --- | --- | --- | --- | --- | --- | --- | --- | --- |
| 4 | CCS(=O)(=O)N1CC[C@H](Nc2c(Br)cnc3[nH]c(-c4cc(C)n(-c5ccc(N6CCOCC6)cc5)c4C)nc23)C1 [Example 1, (S)-6-bromo-2-(2,5-dimethyl-1-(4-morpholinophenyl)-1H-pyrrol-3-yl)-N-(1-(ethylsulfonyl)pyrrolidine-3-yl)-3H-imidazo[4,5-b]pyridine-7-amine] | 10 to 50 | < 10 | 10 to 50 | 10 to 50 | 10 to 50 | 10 to 50 | 10 to 50 | – | – | – | – | – | – | – | – | – |
| – | CCS(=O)(=O)N1CC[C@H](Nc2c(Br)cnc3[nH]c(-c4cc(C)n(-c5c(Cl)cccc5Cl)c4C)nc23)C1 [Example 13, (S)-6-bromo-2-(1-(2,6-dichlorophenyl)-2,5-dimethyl-1H-pyrrol-3-yl)-N-(1-(ethylsulfonyl)pyrrolidine-3-yl)-3H-imidazo[4,5-b]pyridine-7-amine] | – | – | – | – | – | – | – | > 50 | 7 | 10 to 50 | > 50 | – | – | – | – | inhibition at 10 µM ([2]; K562, 72 h): 10 to 50%; inhibition at 10 µM ([4]; HT-29, 72 h): 10 to 50%; inhibition at 10 µM [6, 15]: 10 to 50%; inhibition at 10 µM ([7]; U-937, 72 h): > 50% |
| 17 | CCS(=O)(=O)N1CC[C@H](Nc2c(Br)cnc3[nH]c(-c4cc(C)n(-c5cc(Cl)ccc5Cl)c4C)nc23)C1 [Example 14, 6-bromo-2-(1-(2,5-dichlorophenyl)-2,5-dimethyl-1H-pyrrol-3-yl)-N—((S)-1-(ethylsulfonyl)pyrrolidine-3-yl)-3H-imidazo[4,5-b]pyridine-7-amine] | 10 to 50 | < 10 | 10 to 50 | 10 to 50 | 10 to 50 | < 10 | 10 to 50 | – | – | – | – | – | – | – | – | – |
| – | CCS(=O)(=O)N1CC[C@H](Nc2c(Br)cnc3[nH]c(-c4cc(C)n(-c5ccc(Cl)c(Cl)c5)c4C)nc23)C1 [Example 15, (S)-6-bromo-2-(1-(3,4-dichlorophenyl)-2,5-dimethyl-1H-pyrrol-3-yl)-N-(1-(ethylsulfonyl)pyrrolidine-3-yl)-3H-imidazo[4,5-b]pyridine-7-amine] | – | – | – | – | – | – | – | 10 to 50 | 34 | 10 to 50 | < 10 | – | – | – | – | inhibition at 10 µM ([2]; K562, 72 h): 10 to 50%; inhibition at 10 µM ([4]; HT-29, 72 h): < 10%; inhibition at 10 µM [6, 15]: > 50%; inhibition at 10 µM ([7]; U-937, 72 h): 10 to 50% |
| 11 | CCS(=O)(=O)N1CC[C@H](Nc2c(Br)cnc3[nH]c(-c4cc(C)n(-c5ccccc5Cl)c4C)nc23)C1 [Example 16, 6-bromo-2-(1-(2-chlorophenyl)-2,5-dimethyl-1H-pyrrol-3-yl)-N—((S)-1-(ethylsulfonyl)pyrrolidine-3-yl)-3H-imidazo[4,5-b]pyridine-7-amine] | 10 to 50 | > 50 | < 10 | 10 to 50 | 10 to 50 | 10 to 50 | > 50 | – | – | – | – | – | – | – | – | – |
| – | Cc1cc(-c2nc3c(Nc4cccc(S(N)(=O)=O)c4)c(Br)cnc3[nH]2)c(C)n1-c1c(Cl)cccc1Cl [Example 26, 3-((6-bromo-2-(1-(2,6-dichlorophenyl)-2,5-dimethyl-1H-pyrrol-3-yl)-3H-imidazo[4,5-b]pyridine-7-yl)amino)benzenesulfonamide] | 10 to 50 | < 10 | 10 to 50 | 10 to 50 | 10 to 50 | 10 to 50 | 10 to 50 | – | 19 | – | – | – | – | – | – | – |
| – | CCS(=O)(=O)N1CC[C@H](Nc2c(Cl)cnc3nc(-c4cc(C)n(-c5cccc(C(=O)N6CCOCC6)c5)c4C)[nH]c23)C1 [Example 54, (S)-(3-(3-(6-chloro-7-((1-(ethylsulfonyl)pyrrolidine-3-yl)amino)-1H-imidazo[4,5-b]pyridine-2-yl)-2,5-dimethyl-1H-pyrrol-1-yl)phenyl) (morpholino) methanone] | – | – | – | – | – | – | – | – | – | – | – | 24 | 4.1 | 6.3 | 0.4 | – |
| – | CCS(=O)(=O)N1CC[C@H](Nc2c(Br)cnc3nc(-c4cc(C)n(-c5cc(C(=O)N6CCOCC6)ccc5C)c4C)[nH]c23)C1 [Example 91, (3-(3-(6-bromo-7-(((S)-1-(ethylsulfonyl)pyrrolidine-3-yl)amino)-1H-imidazo[4,5-b]pyridine-2-yl)-2,5-dimethyl-1H-pyrrol-1-yl)-4-methylphenyl) (morpholino) methanone] | – | – | – | – | – | – | – | > 50 | 25 | > 50 | > 50 | – | – | – | – | IC50 (MLK1): 19 nM; inhibition at 10 µM ([8]; A549, 72 h, read-out: Cancer cell proliferation inhibitory activity A549): > 50%; inhibition at 10 µM ([9]; 72 h, read-out: Cancer cell proliferation inhibitory activity Hs746T): > 50% |
| – | Cc1ccc(C(=O)N2CCOCC2)cc1-n1c(C)cc(-c2nc3ncc(Br)c(Nc4cccc(S(N)(=O)=O)c4)c3[nH]2)c1C [Example 94, 3-((6-bromo-2-(2,5-dimethyl-1-(2-methyl-5-(morpholine-4-carbonyl)phenyl)-1H-pyrrol-3-yl)-1H-imidazo[4,5-b]pyridine-7-yl)amino)benzenesulfonamide] | 10 to 50 | – | 10 to 50 | – | 10 to 50 | – | – | – | 73 | – | – | 70 | 40 | 59 | 16 | IC50 (MLK1): 52 nM; inhibition at 10 µM [8, 16]: < 10%; inhibition at 10 µM [9, 17]: > 50% |
| – | CCS(=O)(=O)N1CC[C@H](Nc2c(Br)cnc3[nH]c(-c4cc(C)n(-c5ccc(C(=O)N6CCOCC6)cc5C)c4C)nc23)C1 [Example 98, (4-(3-(6-bromo-7-(((S)-1-(ethylsulfonyl)pyrrolidine-3-yl)amino)-3H-imidazo[4,5-b]pyridine-2-yl)-2,5-dimethyl-1H-pyrrol-1-yl)-3-methylphenyl) (morpholino) methanone] | > 50 | – | > 50 | – | > 50 | – | – | – | – | – | – | 18 | 3.5 | 8.2 | 1 | inhibition at 10 µM [8, 16]: 10 to 50%; inhibition at 10 µM [9, 17]: > 50% |

From US12545673B2, “Imidazopyridine derivative and pharmaceutical composition comprising same as active ingredient” (TSD LIFE SCIENCES CO., LTD., priority 2019, dated 2026)
